Laboratory results: ChEMBL document CHEMBL1201862, “PubChem BioAssay data set” (2004)
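Growth conditions: 96-well plates. Treatment: test compound, 48 hours, 5 concentrations. Analysis: linear interpolation between bracketing concentrations; unreached endpoints set to highest concentration. GI50 is the concentration that inhibits growth by half.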 Activity calls are given as the source filed them. Cut-off read from the data, not from the text of the source: active = GI50 up to about 1.1 µM and inactive = higher.

Legend:
Assay in all cases: inhibition of tumour cell growth, NCI panel, 48 h
OVCAR-8 = system: OVCAR-8
IGROV-1 = system: IGROV-1
SF-539 = system: SF-539
CAKI-1 = system: CAKI-1
NCI-H522 = system: NCI-H522
OVCAR-3 = system: OVCAR-3
HT-29 = system: HT-29
SNB-75 = system: SNB-75
LOX IMVI = system: LOX IMVI
A549 = system: A549
SN12C = system: SN12C
RXF 393 = system: RXF 393
SK-MEL-28 = system: SK-MEL-28
NCI-H460 = system: NCI-H460
CCRF-CEM = system: CCRF-CEM
OVCAR-5 = system: OVCAR-5
OVCAR-4 = system: OVCAR-4

Measured: GI50

Cc1ccc([N+](=O)[O-])cc1NC(=O)c1cccc([N+](=O)[O-])c1O
inactive: OVCAR-8 23 µM | IGROV-1 11.7 µM | SF-539 12.3 µM | CAKI-1 17.8 µM | NCI-H522 3.97 µM | OVCAR-3 7.24 µM | HT-29 20.1 µM | SNB-75 13.4 µM | LOX IMVI 26.6 µM | A549 22.4 µM | SN12C 23.8 µM | RXF 393 3.99 µM | SK-MEL-28 11.5 µM | NCI-H460 12.2 µM | CCRF-CEM 18.2 µM

CC1CCc2c(sc3ncnc(N/N=C/c4ccc(Cl)cc4)c23)C1 (stereo unspecified)
inactive: OVCAR-8 31.4 µM | IGROV-1 53.1 µM | SF-539 > 10 µM | CAKI-1 40.8 µM | NCI-H522 25.9 µM | OVCAR-3 35.4 µM | HT-29 38.5 µM | SNB-75 78.9 µM | LOX IMVI 22.1 µM | A549 31 µM | SN12C 33.4 µM | RXF 393 29.6 µM | OVCAR-5 > 100 µM | SK-MEL-28 32.3 µM | NCI-H460 29.4 µM | CCRF-CEM > 10 µM

COc1cc2cc[n+](C)c(Cc3ccccc3)c2cc1OC
inactive: OVCAR-8 > 100 µM | IGROV-1 > 100 µM | SF-539 > 100 µM | OVCAR-4 > 100 µM | NCI-H522 86.1 µM | OVCAR-3 > 100 µM | HT-29 > 100 µM | SNB-75 > 100 µM | LOX IMVI > 100 µM | A549 > 100 µM | SN12C > 100 µM | RXF 393 > 100 µM | OVCAR-5 > 100 µM | SK-MEL-28 > 100 µM | NCI-H460 > 100 µM | CCRF-CEM > 100 µM

CC(C)C1COC(C(C)(C)C2=N[C@@H](C(C)C)CO2)=N1 (stereo partly specified)
inactive: OVCAR-8 > 100 µM | IGROV-1 > 100 µM | SF-539 > 100 µM | OVCAR-4 > 100 µM | NCI-H522 > 100 µM | OVCAR-3 > 100 µM | HT-29 > 100 µM | SNB-75 > 100 µM | LOX IMVI > 100 µM | A549 > 100 µM | SN12C > 100 µM | RXF 393 > 100 µM | OVCAR-5 > 100 µM | SK-MEL-28 > 100 µM | NCI-H460 > 100 µM | CCRF-CEM > 100 µM

CN(C)CCNC(=O)c1cccc2ccc(-c3cccnc3)nc12
inactive: OVCAR-8 4.3 µM | IGROV-1 3.24 µM | SF-539 11.4 µM | CAKI-1 3.88 µM | OVCAR-4 8.24 µM | OVCAR-3 6.27 µM | HT-29 4.78 µM | SNB-75 10.6 µM | LOX IMVI 3.8 µM | A549 3.7 µM | SN12C 3.61 µM | RXF 393 6.32 µM | OVCAR-5 3.87 µM | SK-MEL-28 11.6 µM | NCI-H460 2.94 µM | CCRF-CEM 6.4 µM

C=C1CC2CC(=O)C(O)C(C1)C2 (stereo unspecified)
inactive: OVCAR-8 > 100 µM | SF-539 > 100 µM | CAKI-1 > 100 µM | NCI-H522 > 100 µM | OVCAR-3 > 100 µM | HT-29 > 100 µM | SNB-75 58.5 µM | LOX IMVI > 100 µM | A549 > 100 µM | SN12C > 100 µM | RXF 393 > 100 µM | OVCAR-5 > 100 µM | NCI-H460 > 100 µM | CCRF-CEM > 100 µM

COc1ccc(C(=O)Nc2ccn(CCOC(=O)c3ccc(OC)cc3)c(=O)n2)cc1
inactive: OVCAR-8 > 100 µM | IGROV-1 > 100 µM | SF-539 > 100 µM | CAKI-1 > 100 µM | OVCAR-4 > 100 µM | NCI-H522 46.1 µM | OVCAR-3 > 100 µM | HT-29 > 100 µM | SNB-75 > 100 µM | LOX IMVI > 100 µM | A549 > 100 µM | SN12C > 100 µM | RXF 393 20.1 µM | OVCAR-5 > 100 µM | SK-MEL-28 > 100 µM | NCI-H460 > 100 µM | CCRF-CEM > 100 µM

Cn1c(=O)c(NC(=O)C(Cl)(Cl)Cl)nc2ccccc21
inactive: OVCAR-8 > 100 µM | IGROV-1 > 100 µM | SF-539 > 100 µM | CAKI-1 > 100 µM | NCI-H522 > 100 µM | OVCAR-3 > 100 µM | HT-29 > 100 µM | SNB-75 62.5 µM | LOX IMVI > 100 µM | A549 > 100 µM | SN12C > 100 µM | RXF 393 81.8 µM | SK-MEL-28 > 100 µM | NCI-H460 > 100 µM | CCRF-CEM > 100 µM

CCOC(=O)CCc1c(C)c2c(OC(C)=O)cc(OC(C)=O)cc2oc1=O
inactive: OVCAR-8 69.3 µM | SF-539 70 µM | CAKI-1 > 100 µM | OVCAR-4 42 µM | NCI-H522 50.4 µM | OVCAR-3 27.4 µM | HT-29 35.6 µM | SNB-75 21.7 µM | LOX IMVI > 10 µM | A549 47.2 µM | SN12C 28.4 µM | RXF 393 21.4 µM | OVCAR-5 > 100 µM | SK-MEL-28 42 µM | NCI-H460 32.5 µM

O=C(O)C1CCCCN1C(=O)c1ccccc1 (stereo unspecified)
inactive: OVCAR-8 > 100 µM | IGROV-1 > 100 µM | SF-539 > 100 µM | OVCAR-4 > 100 µM | OVCAR-3 > 100 µM | HT-29 > 100 µM | SNB-75 > 100 µM | LOX IMVI > 100 µM | A549 > 100 µM | SN12C > 100 µM | RXF 393 > 100 µM | OVCAR-5 > 100 µM | SK-MEL-28 > 100 µM | NCI-H460 > 100 µM | CCRF-CEM > 100 µM

O=C(Nc1c(-c2nc3ccccc3[nH]2)sc(=S)n1-c1ccccc1)c1ccccc1
inactive: OVCAR-8 88.9 µM | IGROV-1 > 100 µM | SF-539 48.8 µM | CAKI-1 > 100 µM | OVCAR-4 > 10 µM | NCI-H522 > 100 µM | OVCAR-3 96.8 µM | HT-29 > 100 µM | SNB-75 29.4 µM | LOX IMVI 97.1 µM | A549 > 100 µM | SN12C 74 µM | RXF 393 > 100 µM | OVCAR-5 > 100 µM | SK-MEL-28 > 100 µM | CCRF-CEM > 100 µM

COc1ccc(C2NCCc3c2[nH]c2ccccc32)cc1 (stereo unspecified)
inactive: OVCAR-8 > 100 µM | IGROV-1 > 100 µM | SF-539 > 100 µM | NCI-H522 > 100 µM | OVCAR-3 > 100 µM | HT-29 > 100 µM | SNB-75 30.5 µM | LOX IMVI > 100 µM | A549 48.2 µM | SN12C > 100 µM | RXF 393 67.1 µM | OVCAR-5 > 100 µM | SK-MEL-28 5.22 µM | NCI-H460 88.9 µM | CCRF-CEM 77.6 µM

O=C(O)CCSC(=S)Nc1cccc(F)c1
inactive: OVCAR-8 37.8 µM | IGROV-1 29.2 µM | SF-539 26.1 µM | CAKI-1 77.3 µM | OVCAR-4 92.3 µM | OVCAR-3 33.7 µM | HT-29 80 µM | SNB-75 82 µM | LOX IMVI 13.9 µM | A549 77.4 µM | SN12C 60.8 µM | RXF 393 30.5 µM | OVCAR-5 > 100 µM | SK-MEL-28 28 µM | NCI-H460 83.9 µM

CCNC(=O)/C=C/CCC#Cc1ccc(-c2ccc(-c3cccs3)s2)s1
inactive: OVCAR-8 > 100 µM | IGROV-1 > 100 µM | SF-539 > 100 µM | CAKI-1 > 100 µM | OVCAR-4 > 100 µM | NCI-H522 > 100 µM | OVCAR-3 > 100 µM | HT-29 > 100 µM | SNB-75 > 100 µM | LOX IMVI > 100 µM | A549 > 100 µM | RXF 393 > 100 µM | OVCAR-5 > 100 µM | NCI-H460 > 100 µM | CCRF-CEM > 100 µM

NC(=O)NC(=O)C1CCC(=O)N1S(=O)(=O)c1ccc(Cl)cc1 (stereo unspecified)
inactive: OVCAR-8 > 100 µM | IGROV-1 > 100 µM | SF-539 > 100 µM | CAKI-1 > 100 µM | OVCAR-4 > 100 µM | NCI-H522 63 µM | OVCAR-3 > 100 µM | HT-29 > 100 µM | SNB-75 > 100 µM | A549 > 100 µM | SN12C > 100 µM | RXF 393 > 100 µM | SK-MEL-28 > 100 µM | NCI-H460 > 100 µM | CCRF-CEM 77.4 µM

C=CCN1C(=O)CS/C1=N\NC(=O)c1c(C)nc2sccn12
inactive: OVCAR-8 > 100 µM | IGROV-1 > 100 µM | SF-539 > 100 µM | CAKI-1 > 100 µM | NCI-H522 > 100 µM | OVCAR-3 > 100 µM | HT-29 > 100 µM | LOX IMVI > 100 µM | A549 > 100 µM | SN12C > 100 µM | RXF 393 > 100 µM | OVCAR-5 > 100 µM | SK-MEL-28 > 100 µM | NCI-H460 > 100 µM | CCRF-CEM > 100 µM

CSc1nc2c(nc(N)n2C2OC(CO)C(O)C(O)C2O)c(=O)n1C (stereo unspecified)
inactive: OVCAR-8 > 100 µM | IGROV-1 > 100 µM | SF-539 > 100 µM | CAKI-1 > 100 µM | OVCAR-4 > 100 µM | NCI-H522 > 100 µM | OVCAR-3 > 100 µM | HT-29 > 100 µM | SNB-75 > 100 µM | LOX IMVI > 100 µM | A549 > 100 µM | SN12C > 100 µM | RXF 393 > 100 µM | SK-MEL-28 > 100 µM | NCI-H460 > 100 µM | CCRF-CEM > 100 µM

CC1(CO)C(=O)OC12CCCCC2 (stereo unspecified)
inactive: OVCAR-8 > 100 µM | IGROV-1 > 100 µM | SF-539 > 100 µM | CAKI-1 > 100 µM | OVCAR-4 > 100 µM | NCI-H522 > 100 µM | OVCAR-3 > 100 µM | HT-29 > 100 µM | SNB-75 84.5 µM | LOX IMVI > 100 µM | A549 > 100 µM | SN12C > 100 µM | SK-MEL-28 > 100 µM | CCRF-CEM > 100 µM
